These results are taken from patent US7759373B2, “Large conductance calcium-activated K channel opener” (Mitsubishi Tanabe Pharma Corporation, priority 2001, dated 2010).

Each structure is given as a SMILES string. Where a name gives a salt, the structure may show the parent alone. A value given as a limit tells only on which side of the number the result lay.

The first data set relates to isolated rabbit urinary bladder. Description: Relaxation effect on potassium-induced contraction of isolated rabbit urinary bladder. In kind it is cell-based. As to conditions: Oryctolagus cuniculus; 50% relaxation concentration; high-K+ (30 mM) pre-contracted rabbit bladder strips; relaxation as percentage of the maximum produced by 0.1 mM papaverine; read-out: EC50 value range. In short, it runs like this:
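Mucosa-free longitudinal bladder strips from male NZW rabbits, held at 37 °C in Krebs solution gassed with 95% O2/5% CO2, were precontracted with 30 mM K+. Compounds were added cumulatively (10^−8–10^−4 M), with isometric relaxation expressed relative to 0.1 mM papaverine maximum. EC50 was derived and reported as rank ranges.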
Consider `O=C(O)Cc1nc(-c2ccc3occc3c2)oc1-c1csc(Cl)c1` [Preparation Example 287], for which the EC50 is at most 500 nM.
Still for that read-out and setting: for `CCN(C)c1ncc(-c2nc(CC(=O)O)c(-c3ccc(Cl)s3)o2)cn1` [Preparation Example 363] the value was 1000 to 3000 nM; for `O=C(O)Cc1sc(-c2ccc(F)cc2)nc1-c1ccsc1` [Preparation Example 594], at most 500 nM.
Same read-out and setting: for `CCc1nc(-c2ccc(Cl)s2)[nH]c1-c1cccnc1` [Preparation example 14] the value was 1000 to 3000 nM; for `O=C(O)Cc1nc(-c2ccc(F)cc2)oc1-c1ccc2occc2c1` [Preparation Example 285], 1000 to 3000 nM.
The same measure, in the same setting: for `Cc1cc(-c2nc(CC(=O)O)c(-c3ccc(Cl)s3)s2)sc1C` [Preparation Example 612] the value was at most 500 nM.

The subject of a further data set is rhythmic bladder contractions induced by substance P. As to the kind of experiment: Inhibitory effect on the rhythmic bladder contractions induced by substance P in anesthetized rats. Format: in vivo, rat. The settings on record: time during which frequency of rhythmic contraction was completely inhibited, 0.25 mg/kg of the compound, substance P infusion. In short, it runs like this: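 Urethane-anesthetized female Sprague-Dawley rats with rhythmic bladder contractions driven by i.v. substance P (0.33 μg/kg/min). Compound given i.v. in saline/0.5% Tween 80 once contractions stable 15 min; intravesical pressure monitored, duration of 100% inhibition ranked A ≥20, B ≥10, C <10 min.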
In the case of `O=C(O)Cc1nc(-c2ccc3occc3c2)oc1-c1csc(Cl)c1` [Preparation Example 287], the “100% inhibition time range” value is listed as “B (A≧20>B≧10>C (minute))”.
For `CCN(C)c1ncc(-c2nc(CC(=O)O)c(-c3ccc(Cl)s3)o2)cn1` [Preparation Example 363], the “100% inhibition time range” value was “C (A≧20>B≧10>C (minute))”.
For `O=C(O)Cc1sc(-c2ccc(F)cc2)nc1-c1ccsc1` [Preparation Example 594], the “100% inhibition time range” value is “C (A≧20>B≧10>C (minute))”.
Consider `CCc1nc(-c2ccc(Cl)s2)[nH]c1-c1cccnc1` [Preparation example 14], for which the “100% inhibition time range” value is “A (A≧20>B≧10>C (minute))”.
In the case of `O=C(O)Cc1nc(-c2ccc(F)cc2)oc1-c1ccc2occc2c1` [Preparation Example 285], the “100% inhibition time range” value is “B (A≧20>B≧10>C (minute))”.
Turning to `Cc1cc(-c2nc(CC(=O)O)c(-c3ccc(Cl)s3)s2)sc1C` [Preparation Example 612], the “100% inhibition time range” value was “A (A≧20>B≧10>C (minute))”.

System in the next data set: not given
Experiment: not given
Conditions: not given
For `CCOC(=O)Cc1nc(-c2ccc(F)cc2)oc1-c1ccccc1F` [Preparation Example 161], the melting point is 88 to 89 °C.
The same measure, in the same setting: next, `CSCc1nc(-c2ccc(C#N)cc2)[nH]c1-c1cccnc1` [Preparation example 134]: 209 to 211 °C; `CCOC(=O)Cc1nc(-c2ccc(OC)c(C)c2)oc1-c1ccsc1` [Preparation Example 410]: 84 to 86 °C; `CCOC(=O)Cc1nc(-c2ccc(C)cc2)oc1-c1cccs1` [Preparation Example 196]: 125 to 127 °C.
Regarding `CCOC(=O)Cc1nc(-c2ccc3ccccc3n2)oc1-c1ccsc1` [Preparation Example 428], the melting point was in the range of 168.5 to 169.5 °C.
The same measure, in the same setting: next, `CCc1nc(-c2cccc(Cl)c2)[nH]c1-c1cccnc1` (as salt: HCl) [Preparation example 13]: 223 to 224 °C.
Same read-out and setting: for `CCCc1nc(-c2cccc(Cl)c2)[nH]c1-c1ccccc1` (as salt: HCl) [Preparation example 29] the value was 202 to 204 °C; for `OCCc1[nH]c(-c2ccc(Cl)s2)nc1-c1cccnc1` (as salt: hydrochloride) [Preparation example 146, 2-(5-chloro-thiophen-2-yl)-5-hydroxyethyl-4-(3-pyridyl)imidazole], 179 to 180 °C.
Compound `OCc1nc(-c2cccc(F)c2)[nH]c1-c1ccccc1` [Preparation example 115] displayed a melting point of 232 to 234 °C.
The same measure, in the same setting: next, `Cc1ccc(-c2ncc(-c3cccnc3)[nH]2)cn1` (as salt: HCl) [Preparation example 26]: 269 to 273 °C; `CCc1nc(-c2ccc(C)nc2)[nH]c1-c1cncs1` (as salt: HCl) [Preparation example 83]: 247 to 251 °C.
Same read-out and setting: next, `CCOC(=O)Cc1nc(-c2ccc(SC)cc2)oc1-c1ccsc1` [Preparation Example 409]: 77 to 78 °C.
On the same count and under the same terms, next, `COCc1nc(-c2cccc(F)c2)[nH]c1-c1ccccc1` (as salt: HCl) [Preparation example 123]: 185 to 188 °C; `Cc1ccc(-c2nc(CO)c(-c3cccnc3)[nH]2)cn1` (as salt: HCl) [Preparation example 114]: 266 to 269 °C; `CCc1nc(-c2ccc(F)cc2)[nH]c1-c1ccc(C)nc1` (as salt: HCl) [Preparation example 47]: 260 to 262 °C.
On to `O=C(O)Cc1nc(-c2ccc(F)cc2)oc1-c1cccs1` [Preparation Example 189], for which the melting point fell in the range of 208 to 209 °C.
On the same count and under the same terms, next, `CCCc1nc(-c2ccc(F)cc2)[nH]c1Br` (as salt: HCl) [Preparation example 79]: 178 to 180 °C.
Same read-out and setting: next, `OCc1nc(-c2ccc(F)cc2)[nH]c1-c1ccccc1` [Preparation example 117]: 240 to 243 °C; `CCCc1nc(-c2csc(Cl)c2)[nH]c1-c1ccccc1` (as salt: HCl) [Preparation example 34]: 194 to 196 °C; `COCc1nc(-c2ccc(F)cc2)[nH]c1-c1ccccc1` (as salt: HCl) [Preparation example 121]: 204 to 207 °C.
The same measure, in the same setting: for `CCCc1nc(-c2ccc(F)cc2)[nH]c1-c1cc(Cl)ccc1O` (as salt: HCl) [Preparation example 92] the value was 262 to 264 °C.
In the case of `CCc1nc(-c2ccc(F)cc2)[nH]c1-c1ccccc1OC` (as salt: HCl) [Preparation example 84], the melting point was 200 to 203 °C (dec.).
For the compound `CCOC(=O)Cc1nc(-c2ccc(N(C)C)cc2)oc1-c1ccc(Cl)s1` [Preparation Example 384], the melting point is 118 to 119 °C.
The same measure, in the same setting: for `CCCc1nc(-c2ccc(F)cc2)[nH]c1-c1ccccc1C(N)=O` (as salt: HCl) [Preparation example 101] the value was 186 to 189 °C; for `OCc1nc(-c2ccc(F)cc2)[nH]c1-c1cccnc1` [Preparation example 113], 225 to 228 °C.
Still for that read-out and setting: next, `CCCc1nc(-c2cc3ccccc3o2)[nH]c1-c1ccccc1` (as salt: HCl) [Preparation example 38]: 185 to 188 °C; `CCc1nc(-c2ccccc2C(N)=O)[nH]c1-c1cccnc1` (as salt: HCl) [Preparation example 18]: 250 to 253 °C.
The same measure, in the same setting: for `Fc1ccc(-c2nc(C3CCCCC3)c(-c3ccsc3)[nH]2)cc1` [Preparation example 45] the value was 171 to 173 °C.
The compound `CCCc1nc(-c2cncc(C)c2)[nH]c1-c1cccs1` (as salt: HCl) [Preparation example 7] yielded a melting point of 183 to 185 °C.
The same measure, in the same setting: next, `CSCc1nc(-c2ccc(C#N)cc2)[nH]c1-c1ccccc1` (as salt: HCl) [Preparation example 132]: 256 to 259 °C; `CCc1nc(-c2ccc(F)cc2)[nH]c1-c1nccs1` (as salt: HCl) [Preparation example 51]: 215 to 218 °C; `CCc1nc(-c2ccc(F)cc2)[nH]c1-c1cscn1` (as salt: HCl) [Preparation example 52]: 267 to 269 °C.
The same measure, in the same setting: next, `CCOC(=O)Cc1nc(-c2ccc(COC(C)=O)cc2)oc1-c1ccc(Cl)s1` [Preparation Example 426]: 112 to 113 °C; `CCc1nc(-c2csc(Br)c2)[nH]c1-c1cccnc1` (as salt: HCl) [Preparation example 19]: 214 to 216 °C; `Cl.O=C(O)Cc1nc(-c2ccc(Cl)s2)oc1-c1cccnc1`: 234 to 238 °C (dec.).
The same measure, in the same setting: next, `OCCc1nc(-c2ccc(F)cc2)oc1-c1ccsc1` [Preparation Example 619]: 110 to 111 °C; `Clc1ccc(-c2nc(Cc3nnn[nH]3)c(-c3ccccc3)s2)cc1` [Preparation Example 632, 5-[2-(4-chlorophenyl)-5-phenyl-thiazol-4-ylmethyl]tetrazole]: 213 to 214 °C.
With `N#Cc1ccc(-c2ncc(-c3cccnc3)[nH]2)cc1` (as salt: HCl) [Preparation example 23], the melting point is 325 to 328 °C.
On the same count and under the same terms, next, `CCc1nc(-c2cccs2)[nH]c1-c1cccnc1` (as salt: HCl) [Preparation example 20]: 215 to 217 °C; `COc1ccccc1-c1c[nH]c(-c2ccc(F)cc2)n1` (as salt: hydrochloride) [Preparation example 66, 2-(4-fluorophenyl)-4-(2-methoxyphenyl)imidazole]: 245 to 248 °C; `CCCc1nc(-c2ccc(F)cc2)[nH]c1-c1cccc(OC)c1` (as salt: HCl) [Preparation example 96]: 120 to 122 °C.
Compound `COCc1nc(-c2ccc(C)nc2)[nH]c1-c1cccnc1` (as salt: HCl) [Preparation example 127] registered a melting point of 251 to 255 °C.
The same measure, in the same setting: next, `CCCc1nc(-c2ccccc2[N+](=O)[O-])[nH]c1-c1ccccc1` (as salt: HCl) [Preparation example 39]: 233 to 236 °C; `CCCc1nc(-c2ccc(F)cc2)[nH]c1-c1ccccc1` (as salt: HCl) [Preparation example 88]: 224 to 226 °C.
In turn, `CCCc1nc(-c2ccsc2)[nH]c1-c1ccccc1` (as salt: HCl) [Preparation example 33] registered a melting point of 215 to 217 °C.
Same read-out and setting: for `O=CNc1[nH]c(-c2ccc(F)cc2)nc1-c1ccccc1` [Preparation example 105, 5-formylamino-2-(4-fluorophenyl)-4-phenylimidazole] the value was 245 to 247 °C; for `CCc1nc(-c2ccc(F)cc2)[nH]c1-c1cncs1` (as salt: HCl) [Preparation example 86], 254 to 256 °C; for `O=C(O)Cc1nc(-c2ccc(F)cc2)oc1-c1ccsc1` [Preparation Example 618], 207 to 209 °C.
Same read-out and setting: for `COc1ccc(-c2nc(CC(=O)O)c(-c3ccsc3)o2)cc1` [Preparation Example 200] the value was 198 to 199 °C.

By EC50 is commonly meant the concentration needed to bring the measured effect to its halfway point. In general, melting point refers to the temperature of the solid-liquid transition.
